Here are results for two compounds from paper PMC12720774, “Detergents alter the stability and lipid binding properties of the CD1d immunoreceptor” (Protein Science : A Publication of the Protein Society, 2025).

Values joined by “and” are separate entries in the source; they are usually repeats but may differ in a detail not shown here. Identical values can stand only once. Like-named read-outs stand apart in the source and are kept apart here.

In data set [1] the target is T1, AF647‐labeled hCD1d (Homo sapiens, UniProt P15813+P61769).
T1 construct: TEV protease cleavage site ENLYFQS (C); BirA biotinylation site (C); His7 (C); made in house; host or cells: TurboCHO cells (GenScript)
T1 sequence (P61769+P15813 fused): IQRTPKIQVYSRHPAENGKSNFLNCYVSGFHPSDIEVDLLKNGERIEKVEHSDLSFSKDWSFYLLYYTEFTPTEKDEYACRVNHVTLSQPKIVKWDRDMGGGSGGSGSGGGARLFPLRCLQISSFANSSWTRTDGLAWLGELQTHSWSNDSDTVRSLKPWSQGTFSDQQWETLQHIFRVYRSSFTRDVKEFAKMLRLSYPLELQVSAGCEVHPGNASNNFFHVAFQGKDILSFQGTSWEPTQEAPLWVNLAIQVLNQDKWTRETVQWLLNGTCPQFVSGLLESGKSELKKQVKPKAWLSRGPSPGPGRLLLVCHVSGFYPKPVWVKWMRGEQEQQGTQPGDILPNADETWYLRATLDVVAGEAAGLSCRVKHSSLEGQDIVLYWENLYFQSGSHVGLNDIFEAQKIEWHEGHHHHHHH
The data set is described as follows: Microscale thermophoresis (MST) binding assay. An excerpt:
(§1) The experimental limitations of ITF, such as low instrument sensitivity, high sample consumption, signal overlap with some ligands, and low throughput (Fossum et al., [2023]), made it necessary to employ alternative, complementary assays to quantify detergent binding to hCD1d. […] MST measures the diffusion of fluorescent molecules in response to microscopic temperature gradients (Seidel et al., [2013]). When a protein forms a complex with a ligand, changes in hydrodynamic properties, charge, or solvation energy alter its thermophoretic behavior, allowing detection of binding events. To perform MST experiments, Alexa Fluor 647 (AF647) dye was covalently attached to the primary amines of hCD1d via standard N‐hydroxysuccinimide coupling chemistry (Anderson et al., [1964]). The concentration of AF647‐hCD1d was kept constant, and the change in MST signal was measured as a function of increasing detergent concentration (Figure S3). Like ITF, any lipid or detergent that destabilizes CD1 can also alter the MST signal since unfolding changes the protein's Stokes radius and its thermophoretic behavior. […] This is why we compare MST results with ITF and nanoDSF, as described below.
(§2) For MST, hCD1d was fluorescently labeled with AF647‐NHS Ester (Invitrogen #A20006). Briefly, a 10 mM stock of AF647‐NHS was prepared in anhydrous DMSO. Then, 100 μL of 50 μM hCD1d in 1X PBS pH 7.4 was mixed with 1 μL of 10 mM AF647‐NHS (1:2 molar ratio of protein: dye). The mixture was allowed to react for 1 h in the dark at 25°C. Unreacted dye was removed from the protein–dye conjugate by performing size exclusion chromatography in the dark with a Superdex 200 Increase 10/300 GL column at a flow rate of 0.5 mL/min in SEC buffer (100 mM NaCl, 20 mM sodium phosphate, pH 7.2). The degree of labeling was determined by a NanoDrop spectrophotometer at A647 nm (dye absorbance) and A280 nm (hCD1d absorbance). The degree of labeling was determined from the ratio of dye concentration to protein concentration. The degree of labeling was ~75%.
(§3) MST experiments were performed using a Monolith NT.115 instrument (NanoTemper Technologies) using Monolith standard capillaries and the red excitation laser setup. The following settings were applied for all MST experiments: excitation power: 30%–50%, MST power: medium, before MST time: 3 s, MST on time (IR laser): 20 seconds, and after MST time: 1 s. MST measurements were analyzed using the Monolith Affinity Analysis software v2.3 and exported for plotting in GraphPad Prism v10.1. Three replicates were performed, and data are presented as the mean ± standard deviation (n = 3).
(§4) MST measurements of 100 nM AF647‐hCD1d were acquired in the absence and presence of detergents in 1X PBS pH 7.4 at 25°C. Prior to data acquisition, hCD1d and detergent or lipid samples were incubated at 37°C overnight (~12 h) to simulate in vitro and in vivo loading conditions. […] For 18:1 LPC experiments: MST data of 100 nM AF647‐hCD1d were acquired in the absence and presence of 18:1 LPC in 1X PBS pH 7.4 at 25°C.
Background: Microscale thermophoresis detects binding through changes in fluorescence in a small temperature gradient.

A further data set has as its system CD1d. Details: method as in Paletta et al., 2015. The settings on record: ref Paletta et al., 2015; cited from earlier work.
The conditions of data set [2]: approximate; ref Sigma Aldrich catalogue; cited from earlier work.
Data set [3] concerns the target T2, hCD1d (Homo sapiens, UniProt P15813+P61769). Description: Nano differential scanning fluorimetry (nanoDSF) thermal stability. Type of data set: binding. Details: TEV protease cleavage site ENLYFQS (C); BirA biotinylation site (C); His7 (C); made in house; host or cells: TurboCHO cells (GenScript). The following applies: absence vs presence of 50 μM α‐GalCer; with 0.05% Tween 20. An excerpt:
We next sought to probe the ability of each detergent to influence the thermal stability of hCD1d. NanoDSF has been previously applied to measure lipid/detergent‐induced thermal stability changes in target proteins (Cecchetti et al., [2021]; Kotov et al., [2019]), but has not yet been applied to ligand binding to CD1. NanoDSF measures the ITF ratio (F 350 nm/F 330 nm) of proteins as a function of temperature to extract thermodynamic parameters. Given that ligand binding typically shifts the melting temperature of proteins, the effect of a ligand on protein stability can be approximated with the ΔT m value (the difference in T m with and without excess ligand) (Cecchetti et al., [2021]; Kotov et al., [2019]). We found all detergents tested to destabilize hCD1d, albeit to different degrees, with ΔT m values ranging from −0.8 to −14.2°C (Figures 4, S4, and Table 1).
Nano differential scanning fluorometry (nanoDSF) was performed using a Prometheus NT.48 (NanoTemper Technologies). Purified hCD1d at 1 μM in 1X PBS pH 7.4 was loaded into nanoDSF grade standard capillaries (NanoTemper Technologies) and exposed to temperatures ranging from 20 to 95°C with a thermal ramping rate of 1°C/min. Excitation power was set to 50%. The ratio of intrinsic fluorescence emission (F 350 nm/F 330 nm) was monitored. Melting temperatures (T m) were obtained from fitting the first derivative plots in the Prometheus NT.48 Software. The experiments were performed in triplicate, and data are presented as the mean ± standard deviation (n = 3).
For experiments with most detergents, prior to data acquisition, hCD1d and detergent or lipid samples were incubated at 37°C overnight (~12 h) to simulate in vitro and in vivo loading conditions. […] For 18:1 LPC experiments: nanoDSF spectra were acquired in the absence and presence of 18:1 LPC in 1X PBS pH 7.4 at 25°C.
For orientation: DSF heats the sample and reads unfolding from a dye or from intrinsic fluorescence.

The target of data set [4] is T2, hCD1d. Details: method as in Cantu et al., 2003; Naidenko et al., 1999. The settings on record: previously estimated, in the presence of detergent; ref Cantu et al., 2003; Naidenko et al., 1999; read-out: binding affinity to hCD1d; cited from earlier work.
The target of data set [5] is T3, AF647‐labeled hCD1d (Homo sapiens, UniProt P15813).
T3 construct: TEV protease cleavage site ENLYFQS (C); BirA biotinylation site (C); His7 (C); made in house; host or cells: TurboCHO cells (GenScript)
T3 sequence (P15813 whole entry, looked up): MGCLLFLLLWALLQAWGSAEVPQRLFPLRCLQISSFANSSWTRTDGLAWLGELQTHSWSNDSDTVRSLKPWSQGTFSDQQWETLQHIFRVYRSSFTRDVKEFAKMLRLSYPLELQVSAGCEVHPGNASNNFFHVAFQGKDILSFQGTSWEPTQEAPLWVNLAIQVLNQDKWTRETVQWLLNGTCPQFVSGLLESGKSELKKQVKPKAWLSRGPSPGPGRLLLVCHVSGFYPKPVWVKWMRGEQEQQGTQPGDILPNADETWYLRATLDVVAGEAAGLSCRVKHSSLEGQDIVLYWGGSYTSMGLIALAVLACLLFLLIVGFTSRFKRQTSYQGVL
The data set is described as follows: Microscale thermophoresis (MST) binding assay. The following applies: α‐GalCer titration with 0.05% Tween 20; estimated; read-out: K D (MST) of lipid.
Excerpt: as §1, §2, §3, §4

The nature of data set [6]: Lipid solubility on resuspension in buffer. It is filed as physicochemical. The following applies: 1X PBS pH 7.4 with or without detergent. The text has this:
Detergents were resuspended to desired stock concentrations in 1X PBS pH 7.4 using sonication/heating. The following lipids were purchased: 1‐oleoyl‐2‐hydroxy‐sn‐glycero‐3‐phosphocholine (18:1 LPC, Avanti Research #845875) and α‐galactosyl ceramide (α‐GalCer, Avanti Research #867000).

T2 sequence (P61769+P15813 fused): as the sequence (P61769+P15813 fused) above

Turning to Tyloxapol, the “Fnorm (rep 1-3)” value at AF647‐labeled hCD1d [1] (3.05176e-8 M detergent) is 791.032 ‰ and 791.82 ‰ and 793.917 ‰; on AF647‐labeled hCD1d [1] (6.10352e-8 M detergent) it was 788.237 ‰ and 790.225 ‰ and 792.188 ‰; at AF647‐labeled hCD1d [1] (1.2207e-7 M detergent), 789.186 ‰ and 789.645 ‰ and 792.672 ‰; on AF647‐labeled hCD1d [1] (2.44141e-7 M detergent) it was 789.349 ‰ and 791.297 ‰ and 791.601 ‰; at AF647‐labeled hCD1d [1] (4.88281e-7 M detergent) it was 793.87 ‰ and 796.123 ‰ and 800.037 ‰; on AF647‐labeled hCD1d [1] (9.76563e-7 M detergent), 794.535 ‰ and 800.785 ‰ and 799.868 ‰. Also, the “Fnorm (rep 1-3)” value at AF647‐labeled hCD1d [1] (1.95313e-6 M detergent) was 799.667 ‰ and 802.675 ‰ and 807.47 ‰; on AF647‐labeled hCD1d [1] (3.90625e-6 M detergent), 800.165 ‰ and 807.424 ‰ and 808.195 ‰; on AF647‐labeled hCD1d [1] (7.8125e-6 M detergent), 803.847 ‰ and 808.251 ‰ and 810.421 ‰; on AF647‐labeled hCD1d [1] (1.5625e-5 M detergent), 804.661 ‰ and 807.958 ‰ and 808.866 ‰; at AF647‐labeled hCD1d [1] (3.125e-5 M detergent), 803.048 ‰ and 809.197 ‰ and 809.196 ‰; on AF647‐labeled hCD1d [1] (6.25e-5 M detergent) it was 803.488 ‰ and 807.296 ‰ and 810.346 ‰. Also, the “Fnorm (rep 1-3)” value at AF647‐labeled hCD1d [1] (0.000125 M detergent) is 802.129 ‰ and 807.585 ‰ and 809.032 ‰; on AF647‐labeled hCD1d [1] (0.00025 M detergent), 803.446 ‰ and 808.163 ‰ and 808.584 ‰; at AF647‐labeled hCD1d [1] (0.0005 M detergent), 803.236 ‰ and 807.226 ‰ and 808.719 ‰; on AF647‐labeled hCD1d [1] (0.001 M detergent, 100 nM AF647‐hCD1d), 804.928 ‰ and 807.69 ‰ and 809.093 ‰. Further, the Kd on AF647‐labeled hCD1d [1] (Figure 5B, detergent binding to hCD1d, read-out: MST - Kd (uM) average) was determined as 0.96 µM; at AF647‐labeled hCD1d [1] (detergent with 100 nM AF647‐labeled hCD1d, 25°C, apparent, read-out: K D (MST)) it was 0.9 ± 0.2 µM. In the data set on CD1d, the “efficiency of loading α‐GalCer analogues onto CD1d (in words)” value is “more efficient than Tween 20 and Triton X‐100”. Besides, the CMC in data set [2] was 18 µM.
Regarding `CCCCCCCCCCCCCCCCCCCCCCCCCC(=O)N[C@@H](CO[C@H]1O[C@H](CO)[C@H](O)[C@H](O)[C@H]1O)[C@H](O)[C@H](O)CCCCCCCCCCCCCC` [α‐GalCer, α‐galactosyl ceramide], the “ΔT m (nanoDSF) of lipid” value on hCD1d [3] is “+13.7 ± 0.2 °C”. For the same compound, the Kd on hCD1d [4] was 100 to 500 nM; on AF647‐labeled hCD1d [5], 6600 ± 4100 nM. The “solubility (in words)” value in data set [6] is on record as “only soluble in the presence of Tween 20”.
